Reference: patent publication US20130079271A1, “REVERSED BIARYL SPIROAMINOOXAZOLINE ANALOGUES AS ALPHA2C ADRENERGIC RECEPTOR MODULATORS” (priority 2009, published 2013)

What follows are compounds tested against T1, α2C receptor (Homo sapiens, UniProt P18825) (assay: Efficacy agonist activity (Emax, GTPγS assay) at α2C). Conditions: by definition: efficacy at α2C ≧30% Emax (GTPγS assay); functionally selective if also efficacy at α2A ≦35% Emax.
T1 sequence (P18825 1-462): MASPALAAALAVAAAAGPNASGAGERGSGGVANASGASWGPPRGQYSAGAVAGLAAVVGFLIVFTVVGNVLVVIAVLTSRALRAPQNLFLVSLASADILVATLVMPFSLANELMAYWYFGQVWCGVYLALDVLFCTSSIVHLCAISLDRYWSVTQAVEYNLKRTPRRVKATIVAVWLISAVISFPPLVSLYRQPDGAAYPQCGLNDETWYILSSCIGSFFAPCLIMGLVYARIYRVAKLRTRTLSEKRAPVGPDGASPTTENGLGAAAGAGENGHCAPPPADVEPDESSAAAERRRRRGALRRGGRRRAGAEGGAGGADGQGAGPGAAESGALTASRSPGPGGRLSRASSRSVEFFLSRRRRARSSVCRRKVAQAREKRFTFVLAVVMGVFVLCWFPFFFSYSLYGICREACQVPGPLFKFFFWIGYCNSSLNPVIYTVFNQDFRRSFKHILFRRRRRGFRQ
Type: biochemical
Protocol: Efficacy agonist activity values (Emax, GTPγS assay) for α2A and α2C were determined by following the general procedure detailed by Umland et. al (“Receptor reserve analysis of the human α2c-adrenoceptor using [^35S]GTPγS and cAMP functional assays” European Journal of Pharmacology 2001, 411, 211-221). For the purposes of the present invention, a compound is defined to be a specific or at least functionally selective agonist of the α2C receptor subtype if the compound's efficacy at the α2C receptor is ≧30% Emax (GTPγS assay) and its efficacy at the α2A receptor is ≦35% Emax (GTPγS assay). Additionally, for the purposes of this invention, a compound is defined to be an antagonist of the α2C receptor subtype if the compound's efficacy at the α2C receptor is <30% Emax (GTPγS assay) and the Ki at the α2C receptor subtype was <500 nM, preferentially <200 nM, and most preferentially <20 nM.

SMILES | evaluated to be active or functionally selective agonists of the α2C receptor subtype
NC1=NCC2(CCc3c(cccc3-c3cncnc3)C2)O1 (racemic) [(±)-1] | active or functionally selective agonists
CN1OC2(CCc3cccc(-c4cncnc4)c3C2)N=C1N (racemic) [(±)-5B] | active or functionally selective agonists
CN1OC2(CCc3ccc(-c4cncnc4)cc3C2)N=C1N (racemic) [(±)-5F] | active or functionally selective agonists
CN1OC2(CCc3c(cccc3-c3cncnc3)C2)N=C1N (racemic) [(±)-5] | active or functionally selective agonists
NC1=NCC2(CCc3c(cccc3-c3cc(F)cc(F)c3)C2)O1 (racemic) [(±)-104] | active or functionally selective agonists
NC1=NCC2(CCc3c(cccc3-c3cncc(F)c3)C2)O1 (racemic) [(±)-108] | active or functionally selective agonists
NC1=NC[C@]2(CCc3c(cccc3-c3cncc(F)c3)C2)O1 (racemic) [compound 113] | active or functionally selective agonists
NC1=NC[C@]2(CCc3c(cccc3-c3cncnc3)C2)O1 [1f] | active or functionally selective agonists
NC1=NC[C@]2(CCc3c(cccc3-c3cc(F)cc(F)c3)C2)O1 [compound 112] | active or functionally selective agonists
